Laboratory results published in PubChem BioAssay (NCI).
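These data come from cells grown in 96-well plates and exposed to compound for 48 hours at five concentrations. At the TGI there is no net growth.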

Assays:
Experiment in all cases: NCI-60 cell line screen, 48 h
[1] = tested on: 786-0 renal
[2] = tested on: A498 renal
[3] = tested on: A549 NSCLC
[4] = tested on: ACHN renal
[5] = tested on: BT-549 breast
[6] = tested on: CAKI-1 renal
[7] = tested on: CCRF-CEM leukemia
[8] = tested on: COLO 205 colon
[9] = tested on: DU-145 prostate
[10] = tested on: EKVX NSCLC
[11] = tested on: HCC-2998 colon
[12] = tested on: HCT-116 colon
[13] = tested on: HCT-15 colon
[14] = tested on: HL-60(TB) leukemia
[15] = tested on: HOP-62 NSCLC
[16] = tested on: HOP-92 NSCLC
[17] = tested on: HS 578T breast
[18] = tested on: HT29 colon
[19] = tested on: IGROV1 ovarian
[20] = tested on: K-562 leukemia
[21] = tested on: KM12 colon
[22] = tested on: LOX IMVI melanoma
[23] = tested on: M14 melanoma
[24] = tested on: MALME-3M melanoma
[25] = tested on: MCF7 breast
[26] = tested on: MDA-MB-231 breast
[27] = tested on: MDA-MB-435
[28] = tested on: MDA-N
[29] = tested on: MOLT-4 leukemia
[30] = tested on: NCI-H23 lung
[31] = tested on: NCI-H460 lung
[32] = tested on: NCI-H522 lung
[33] = tested on: NCI/ADR-RES ovarian
[34] = tested on: OVCAR-3 ovarian
[35] = tested on: OVCAR-5 ovarian
[36] = tested on: OVCAR-8 ovarian
[37] = tested on: PC-3 prostate
[38] = tested on: RPMI-8226 leukemia
[39] = tested on: RXF 393 renal
[40] = tested on: SF-268 CNS
[41] = tested on: SF-295 CNS
[42] = tested on: SF-539 CNS
[43] = tested on: SK-MEL-2 melanoma
[44] = tested on: SK-MEL-28 melanoma
[45] = tested on: SK-MEL-5 melanoma
[46] = tested on: SK-OV-3 ovarian
[47] = tested on: SNB-19 CNS
[48] = tested on: SNB-75 CNS
[49] = tested on: SR leukemia
[50] = tested on: SW-620 colon
[51] = tested on: T-47D breast
[52] = tested on: TK-10 renal
[53] = tested on: U251 CNS
[54] = tested on: UACC-257 melanoma
[55] = tested on: UACC-62 melanoma
[56] = tested on: UO-31 renal

`O=C(O)c1ccc(Nc2nc3cc(C(F)(F)F)ccc3n3cccc23)cc1` was tested, and the TGI [1] was 65.5 µM, the TGI [2] was > 100 µM and the TGI [3] was > 100 µM. For the same compound, the TGI [4] was > 100 µM, the TGI [5] was > 100 µM and the TGI [6] was > 100 µM. The TGI [7] was > 100 µM, the TGI [8] was 37 µM and the TGI [9] was > 100 µM. The TGI [10] was > 100 µM, the TGI [11] was 44.6 µM and the TGI [12] was 68.2 µM. The TGI [13] was > 100 µM, the TGI [14] was > 100 µM and the TGI [15] was > 100 µM. For the same compound, the TGI [16] was > 100 µM, the TGI [17] was > 100 µM and the TGI [18] was 30.9 µM. For the same compound, the TGI [19] was > 100 µM, the TGI [20] was 67.7 µM and the TGI [21] was > 100 µM. The TGI [22] was 30.5 µM, the TGI [23] was 80.5 µM and the TGI [24] was > 100 µM. The TGI [25] was > 100 µM, the TGI [26] was 49.8 µM and the TGI [27] was > 100 µM. The TGI [28] was > 100 µM, the TGI [29] was 67.7 µM and the TGI [30] was > 100 µM. The TGI [31] was 38.7 µM, the TGI [32] was 53.8 µM and the TGI [33] was > 100 µM. For the same compound, the TGI [34] was > 100 µM, the TGI [35] was > 100 µM and the TGI [36] was > 100 µM. The TGI [37] was 93.5 µM, the TGI [38] was 68.6 µM and the TGI [39] was 58.8 µM. For the same compound, the TGI [40] was > 100 µM, the TGI [41] was > 100 µM and the TGI [42] was 74.6 µM. The TGI [43] was > 100 µM, the TGI [44] was > 100 µM and the TGI [45] was 38.8 µM. For the same compound, the TGI [46] was > 100 µM, the TGI [47] was > 100 µM and the TGI [48] was 81 µM. The TGI [49] was 41.6 µM, the TGI [50] was > 100 µM and the TGI [51] was 70.4 µM. The TGI [52] was > 100 µM, the TGI [53] was 52.6 µM and the TGI [54] was 71.6 µM. The TGI [55] was 77.8 µM and the TGI [56] was > 100 µM.
